Values after ≈ are worked out from the molar mass of the structure shown.
Assay: Water solubility of flavoring agents and their flavor glucosides
Details: not given

Molecule | increase of water solubility (glucoside vs flavoring agent) [×] | Flavoring Agent water solubility [mg/mL]
COc1cc(CO)ccc1O[C@@H]1O[C@H](CO)[C@@H](O)[C@H](O)[C@H]1O [Vanillin-Alcohol glucoside, 3-methoxy-benzyl alcohol-4-O-β-D-glucopyranoside] | 32 | –
Cc1ccc(C(C)C)cc1O [Carvacrol] | – | 1.25

Same assay, conditions: flavoring agent in the form of its flavor glucoside; water

Molecule | Glucoside water solubility [mg/mL]
Cc1occc(=O)c1O[C@@H]1O[C@H](CO)[C@@H](O)[C@H](O)[C@H]1O [Maltol glucoside, 2-methyl-4H-pyran-4-one-3-O-β-D-glucopyranoside] | 535
C=CC(C)(CCC=C(C)C)O[C@@H]1O[C@H](CO)[C@@H](O)[C@H](O)[C@H]1O (stereo partly drawn) [Linalool glucoside, 1-ethenyl-1,5-dimethyl-4-hexen-1-yl-O-β-D-glucopyranoside] | 564
C=C(C)C1CC=C(CO[C@@H]2O[C@H](CO)[C@@H](O)[C@H](O)[C@H]2O)CC1 (stereo partly drawn) [Perillyl alcohol glucoside, p-mentha-1,8-dien-7-yl-O-β-D-glucopyranoside] | 485
CCc1occc(=O)c1O[C@@H]1O[C@H](CO)[C@@H](O)[C@H](O)[C@H]1O [Ethylmaltol glucoside, 2-ethyl-4H-pyran-4-one-3-O-β-D-glucopyranoside] | 662
CC(C)=CCC/C(C)=C/CO[C@@H]1O[C@H](CO)[C@@H](O)[C@H](O)[C@H]1O [Geraniol glucoside, (2E)-3,7-dimethyl-2,6-octadien-1-yl-O-β-D-glucopyranoside] | 627
CC(C)=CCCC(C)CCO[C@@H]1O[C@H](CO)[C@@H](O)[C@H](O)[C@H]1O (stereo partly drawn) [Citronellol glucoside, 3,7-dimethyl-6-octen-1-yl-O-β-D-glucopyranoside] | 519
CCC1OC(=O)C(O[C@@H]2O[C@H](CO)[C@@H](O)[C@H](O)[C@H]2O)=C1C (stereo partly drawn) [Maple furanone glucoside, 5-ethyl-3-hydroxy-4-methyl-2(5H)-furanone-3-O-β-D-glucopyranoside] | 772
COc1cc(CO)ccc1O[C@@H]1O[C@H](CO)[C@@H](O)[C@H](O)[C@H]1O [Vanillin-Alcohol glucoside, 3-methoxy-benzyl alcohol-4-O-β-D-glucopyranoside] | 62
OC[C@H]1O[C@@H](OCCc2ccccc2)[C@H](O)[C@@H](O)[C@@H]1O [2-Phenylethanol glucoside, 2-phenyleth-1-yl-O-β-D-glucopyranoside] | 833
CC1=C(O[C@@H]2O[C@H](CO)[C@@H](O)[C@H](O)[C@H]2O)C(=O)OC1C (stereo partly drawn) [Sotolon glucoside, 4,5-dimethylfuran-2(5H)-one-3-O-β-D-glucopyranoside] | 502
COC(=O)c1ccccc1N[C@@H]1O[C@H](CO)[C@@H](O)[C@H](O)[C@H]1O [Methylanthranilate glucoside, methyl-2-aminobenzoate-N-β-D-glucopyranoside] | 35
CC12CCC(C1)C(C)(C)C2O[C@@H]1O[C@H](CO)[C@@H](O)[C@H](O)[C@H]1O (stereo partly drawn) [Fenchol glucoside, 1,3,3-trimethyl-bicyclo[2.2.1]heptan-2-yl-O-β-D-glucopyranoside] | 4
CCCCCCO[C@@H]1O[C@H](CO)[C@@H](O)[C@H](O)[C@H]1O [1-Hexanol glucoside, hex-1-yl-O-β-D-glucopyranoside] | 676
C=CC(CCCCC)O[C@@H]1O[C@H](CO)[C@@H](O)[C@H](O)[C@H]1O (stereo partly drawn) [1-Octen-3-ol glucoside, 1-octen-3-yl-O-β-D-glucopyranoside] | 200
CC(C)=CCC/C(C)=C\CO[C@@H]1O[C@H](CO)[C@@H](O)[C@H](O)[C@H]1O [Nerol glucoside, (2Z)-3,7-dimethyl-2,6-octadien-1-yl-O-β-D-glucopyranoside] | 16.6
CC/C=C\CCO[C@@H]1O[C@H](CO)[C@@H](O)[C@H](O)[C@H]1O [cis-3-Hexen-1-ol glucoside, (3Z)-3-hexen-1-yl-O-β-D-glucopyranoside] | 598
(2/5)-ethyl-5 (or 2)-methyl-3(2H)-furanone-4-O-β-D-glucopyranoside [Homofuraneol glucoside] | 749
CC(C)=CCCC(C)=CCCC(C)=CCO[C@@H]1O[C@H](CO)[C@@H](O)[C@H](O)[C@H]1O [Farnesol glucoside, 3,7,11-trimethyl-2,6,10-dodecatrien-1-yl-O-β-D-glucopyranoside] | 1
CC1(C)C2CC=C(CO[C@@H]3O[C@H](CO)[C@@H](O)[C@H](O)[C@H]3O)C1C2 (stereo partly drawn) [Myrtenol glucoside, 6,6-dimethylbicyclo(3.1.1)hept-2-ene-2-methyl-O-β-D-glucopyranoside] | 525
C=CCc1ccc(O[C@@H]2O[C@H](CO)[C@@H](O)[C@H](O)[C@H]2O)c(OC)c1 [Eugenol glucoside, 2-methoxy-4-(2-propen-1-yl)phenyl-O-β-D-glucopyranoside] | 15.1
CC1=C(O[C@@H]2O[C@H](CO)[C@@H](O)[C@H](O)[C@H]2O)C(=O)C(C)O1 (stereo partly drawn) [Furaneol glucoside, 2,5-dimethyl-3(2H)-furanone-4-O-β-D-glucopyranoside] | 731
(S)-2-(4-methyl-3-cyclohexenyl)-2-propanyl-O-β-D-glucopyranoside [Alpha-Terpineol glucoside] | 172

Same assay, conditions: free flavoring agent, not bound to sugar; water

Molecule | Flavoring Agent water solubility [mg/mL]
CCC1OC(=O)C(O)=C1C (centres unmarked) [Maple furanone] | 74.39
CCC1OC(C)=C(O)C1=O (centres unmarked) [Homofuraneol] | 6.178
COc1cc(CO)ccc1O [Vanillin-Alcohol] | 2
CCc1occc(=O)c1O [Ethylmaltol] | 24.23
Oc1ccc2c(c1)OCO2 [Sesamol] | 14.65
CC1=C(O)C(=O)OC1C (centres unmarked) [Sotolon] | 22.28
OCCc1ccccc1 [2-Phenylethanol] | 21.99
CC1(C)C2CC=C(CO)C1C2 (centres unmarked) [Myrtenol] | 0.261

Same assay, conditions: free flavoring agent; at 25° C.

Molecule | water solubility
COc1cc(CO)ccc1O [Vanillin-Alcohol] | approximately 2 g/I

Same assay, conditions: water

Molecule | solubility [mg/mL]
CC1=CCC(C(C)(C)O)CC1 (stereo not drawn) [Alpha-Terpineol] | 0.71 (≈ 4.6 mM)
CC/C=C\CCO [cis-3-Hexen-1-ol] | 16 (≈ 160 mM)
CC(C)=CCC/C(C)=C/CO [Geraniol] | 0.1 (≈ 0.648 mM)
C=CCc1ccc(O)c(OC)c1 [Eugenol] | 2.46 (≈ 15 mM)
C=CC(C)(O)CCC=C(C)C (centres unmarked) [Linalool] | 0.68 (≈ 4.41 mM)
CC(C)=CCCC(C)=CCCC(C)=CCO [Farnesol] | 0.00129 (≈ 0.0058 mM)
CC(C)=CCCC(C)CCO (centres unmarked) [Citronellol] | 0.106 (≈ 0.678 mM)
CC1=C(O)C(=O)C(C)O1 (centres unmarked) [Furaneol] | 18.5 (≈ 144 mM)
CC(C)=CCC/C(C)=C\CO [Nerol] | 0.256 (≈ 1.66 mM)
CC1CCC(C(C)C)C(O)C1 (centres unmarked) [Menthol] | 0.49 (≈ 3.14 mM)
CC12CCC(C1)C(C)(C)C2O (centres unmarked) [Fenchol] | 0.461 (≈ 2.99 mM)
C=C(C)[C@@H]1CC=C(CO)CC1 [Perillyl alcohol] | 0.471 (≈ 3.09 mM)
Cc1occc(=O)c1O [Maltol] | 10.9 (≈ 86.4 mM)
C=CC(O)CCCCC (centres unmarked) [1-Octen-3-ol] | 1.84 (≈ 14.3 mM)

— patent US20240008524A1, “CONSUMABLE” (Nicoventures Trading Limited, priority 2020, published 2024)
